Laboratory results as given in patent US7033829B2, “Method to inhibit cell growth using oligonucleotides” (Trustees of Boston University, priority 2000, dated 2006).
{P} = phosphate

What was measured:
[1] = test system: Cloudman S91 mouse melanoma cells; assay: Melanin content of Cloudman S91 melanoma cells; type: cell-based; settings: for increase in melanin content: variations of the 9-mer, cells not given; for melanogenic activity: with 5′ phosphate, FIG. 18
Protocol: (§1) The induction of melanogenesis in Cloudman S91 mouse melanoma cells by a five-nucleotide oligomer CATAC (SEQ ID NO: 6) and a nine-nucleotide oligomer, GAGTATGAG (SEQ ID NO: 1) was examined. Duplicates of Cloudman S91 murine melanoma cells were incubated with either 100 μM oligo or an equal volume of diluent (H2O) for 5 days. The cells were then collected, counted, and an equal number of cells were pelleted for melanin analysis. […] Variations of this oligonucleotide were evaluated: a scrambled 9-mer (TAGGAGGAT; SEQ ID NO: 2) and two truncated versions, a 7-mer (AGTATGA; SEQ ID NO: 3) and second 5-mer (GTATG; SEQ ID NO: 4). […] The truncated versions (SEQ ID NOs: 3 and 4) were also active, inducing 640% and 670% increases, respectively.
Cultures of Cloudman S91 murine melanoma cells were treated for 5 days with SEQ ID NO: 1, SEQ ID NO: 6, pTpT as a positive control, or an equal volume of diluent as a negative control. […] SEQ ID NO: 6 produced a slight increase in melanin, to 165+/−77% of control levels. SEQ ID NO: 1 stimulated melanin content to an average of 600+/−260% of control levels.
pTpT, shown previously to stimulate pigmentation in these cells, was used as a reference treatment, and diluent alone was used as a negative control. After five days of treatment with the oligonucleotides, the cells were collected, counted, and an equal number of cells were pelleted for melanin analysis. […] SEQ ID NO: 5, representing the telomere over-hang sequence, also at 10 μM, increased the melanin level to 10 times that of control cells.
S91 cells were cultured in the presence of diluent alone, pTpT p9mer (SEQ ID NO: 1), p7mer (AGTATGA; SEQ ID NO: 7) or p5mer #2 (SEQ ID NO: 4). […] Both SEQ ID NOS: 4 and 7 stimulated a 7–8 fold increase in melanin.
S91 cells were cultured for 5 days in the presence of the thymidine dinucleotides or SEQ ID NO: 1 with or without a 5′ phosphate or diluent alone as a negative control.
Cultures of S91 mouse melanoma cells (100,000 cells/38 cm^2) were treated with 100 μM pTpT or phosphorothioate pTpT (pTspT) (FIG. 22) or 40 μM 11mer-1 or the phosphorothioate 11mer-1 (11mer-1-S) (FIG. 23) for 6 days and were then collected, counted and assayed for melanin content.
Duplicate cultures of S91 cells (100,000 cells/39 cm^2) were either sham-irradiated or irradiated with 5 mJ/cm^2 solar-simulated light from a 1 kW xenon arc solar-simulator (XMN 1000-21, Optical Radiation, Azuza, Calif.) metered at […] using a research radiometer (model IL1700A, International Light, Newburyport, Mass.). Two sham-irradiated plates were then supplemented with 100 μM pTspT and two irradiated cultures were similarly treated with pTspT. After one week, cells were collected, counted and analyzed for melanin content by dissolving the cell pellets in 1 N NaOH and measuring the optical density at […]. […] However, this response was blocked by the addition of pTspT (FIG. 24). In addition, the constitutive pigmentation of these cells was reduced by the pTspT in the sham-irradiated cultures, similar to the data presented in FIGS. 22 and 23.

p21/Waf 1/Cip 1 gene = assay: p21 mRNA Northern blot in SCC12F cells; type: cell-based, human; settings: 48 hours
Protocol: as §1
(§2) pTpT was previously found to inhibit cell cycle progression, at least in part through activation of p53 and subsequent upregulation of the cyclin dependent kinase inhibitor p21. Cultures of the human keratinocyte line SCC12F were treated with pTpT, SEQ ID NO: 1, SEQ ID NO: 6 or diluent alone as a negative control, collected and counted 48 hours later and processed for northern blot analysis of p21 mRNA expression. […] Thus, the sequences of the present invention activate p53 and inhibit cell proliferation similar to the effect of pTpT.

[2] = test system: Human squamous carcinoma cell line SCC12F cells; assay: Cell growth / cell yield of SCC12F cells (Coulter counter); type: cell-based; settings: after 2 days; FIG. 14
Protocol: Human squamous carcinoma cell line SCC12F cells were maintained in primary keratinocyte medium (300 ml DME, 100 ml F-12 nutrient supplement, 50 ml 10× adenine, 50 ml fetal bovine serum, 5 ml penicillin/streptomycin stock, and 0.5 ml of 10 μg/ml epidermal growth factor and hydrocortisone to final concentration of 1.4 μg/ml) and dosed with either water (diluent), 100 μM pTpT (T2, Midland Certified Reagent Company, Midland, Tex.) or 100 μM pdApdA (A2). Cells were harvested before dosing (day 0), and 1, 3, 4, and 5 days after dosage, and were counted by Coulter™ counter. After harvesting, the cells were processed for total RNA isolation and were analyzed by Northern blot. Addition of a control deoxyadenine dinucleotide (pdApdA), a compound very similar to pTpT but not readily dimerized by UV irradiation, and therefore rarely excised during the course of UV-induced DNA repair, has no effect.
In a second experiment, SCC12F cells were cultured as described above. Two or three days after seeding, the preconfluent cultures were given fresh medium supplemented with either 100 μM T2 or diluent as a control. Cells were collected daily by trypsinization and counted by Coulter™ counter. The cell yield in cultures treated with T2 was reduced by […] compared to that of paired control cultures after five days (FIG. 2). This corresponds to 2.3 population doublings in this time for control cells, compared with 1 doubling for T2-treated cells.
as §2
Exposure of keratinocytes to UVB irradiation affects the expression of genes involved in cell cycle arrest, DNA repair and cytokine production. Single-stranded oligonucleotides sharing sequence homology with the telomere 3′ overhang, when introduced into cells, mimic these UV effects. To identify other genes that may be similarly modulated, cells of keratinocyte origin (SCC12F; a human epidermal squamous cell carcinoma line provided by Dr. James Rheinwald of Harvard University) were exposed to solar simulated irradiation (SSR) (20 mJ/cm^2, measured at 285±5 nm), to an 11-base oligonucleotide (pGTTAGGGTTAG; SEQ ID NO:5) homologous to the telomere overhang (T-oligo), or to a complementary sequence as control [pCTAACCCTAAC; (SEQ ID NO:9) control oligonucleotide]. […] These are mitochondrial-transcribed genes whose encoded proteins participate in cellular respiration.

S91 cells = assay: Cellular uptake of FAM-labeled oligonucleotides in S91 cells; type: in vitro ADME, mouse; settings: 4 hours
Protocol: Fluorescein phosphoramidite (FAM) labeled oligonucleotides were added to cultures of S91 cells for 4 hours and the cells were then prepared for confocal microscopy. Nuclei, identified by staining with propidium iodide, appeared red and FAM-labeled oligonucleotides appeared green. Co-localization of red and green signals was assigned a yellow color by the computer. […] There was no change in the profile of oligonucleotide uptake after 6 and 24 hours.

Jurkat cells = assay: FACS cell cycle / apoptosis analysis of Jurkat cells; type: cell-based, human
Protocol: Oligonucleotides homologous to the telomere overhang repeat sequence (TTAGGG; SEQ ID NO:11), sequence (11mer-1: pGTTAGGGTTAG; SEQ ID NO: 5), complementary to this sequence (11mer-2: pCTAACCCTAAC; SEQ ID NO: 9) and unrelated to the telomere sequence (11mer-3: pGATCGATCGAT; SEQ ID NO: 10) were added to cultures of Jurkat cells, a line of human T cells, one of the cell types reported to undergo apoptosis in response to telomere disruption. Within 48 hours, 50% of the cells treated with 40 μM of SEQ ID NO: 5 had accumulated in the S phase, compared to 25–30% for control cells (p<0.0003, non-paired t-test; see FIGS. 19A–19D), and by 72 hours, 13% of these cells were apoptotic as determined by a sub-G0/G1 DNA content, compared to 2–3% of controls (p<0.007, non-paired t-test; see FIGS. 19E–19H). At 96 hours, 20±3% of the 11mer-1 treated cells were apoptotic compared with 3–5% of controls (p<0.0001, non-paired t-test). To exclude preferential uptake of the 11mer-1 as an explanation of its singular effects, Jurkat cells were treated with oligonucleotides labeled on the 3′ end with fluorescein phosphoramidite, then subjected to confocal microscopy and FACS analysis. The fluorescence intensity of the cells was the same after all treatments at 4 hours and 24 hours.
Three DNA oligonucleotides were designed initially: one homologous to the telomere overhang (11mer-1: pGTTAGGGTTAG; SEQ ID NO:5), one complementary to this sequence (11mer-2: pCTAACCCTAAC; SEQ ID NO:9) and one unrelated (11mer-3: pGATCGATCGAT; SEQ ID NO:10). For later experiments, additional 11 base oligonucleotides were designed: one a simple permutation of 11mer-1 (pGGGTTAGGGTT; SEQ ID NO:13), one with the same number of G residues but roughly 50% rather than 100% homology to the overhang (pTAGATGTGGTG; SEQ ID NO:14), and one with roughly 50% overhang homology but also containing cytosine bases (pCGGGCTTATTG; SEQ ID NO:15) (Midland Certified Reagent Company, Midland, Tex.). Cell Sources and Culture Human neonatal fibroblasts were established and cultured as previously described (Eller, M. S., et al., 1997, Proc Natl Acad Sci USA 94: 12627–12632). Fibroblasts from a Nijmegen breakage syndrome (NBS) patient (#GM07166) and an age-matched control (GM03399) were purchased from the NIGMS Human Cell Repository, Coriell Institute for Medical Research, Camden, N.J.) and cultured in DMEM/15% FBS. Saos-2 cells were purchased from the American Type Culture Collection (ATCC; Manassas, Va.). SCC12F cells were the kind gift of Dr. James Rheinwald, Harvard University. Cell Cycle Analysis The established line of human T lymphocytes, termed Jurkat cells (180,000 cells/ml) were plated in RPMI medium 1640 supplemented with 3% FBS (both from GIBCO/BRL, Gaithersburg, Md.). […] Cells were collected up to 96 hours after treatment, stained with propidium iodide and analyzed by FACS using a Becton-Dickinson FacsScan and CellQuest software. Caspase Activity
Oligonucleotides homologous to the 3′ overhang sequence (11mer-1: pGTTAGGGTTAG; SEQ ID NO:5), complementary to this sequence (11mer-2: pCTAACCCTAAC; SEQ ID NO:9) and unrelated to the telomere sequence (11mer-3: pGATCGATCGAT; SEQ ID NO:10) were synthesized. The three 11mer oligonucleotides were added to cultures of Jurkat cells, an established line of human T lymphocytes, a cell type reported to undergo apoptosis in response to telomere disruption [Karlseder, J., et al, (1999) Science 283, 1321–1325] and DNA damaging ionizing radiation (IR) [Vigorito, E., et al, (1999), Hematol Cell Ther 41, 153–161]. Duplicate cultures of Jurkat cells were treated with a final concentration of 40 μM 11mer-1, -2 or -3, oligonucleotides, or an equal volume of diluent (water) as a control. Cells were collected up to 96 hours after treatment, stained with propidium iodideandanalyzed by FACS. See also Example 13 and FIGS. 19A–19H.
To further confirm the specificity of these responses to the telomere overhang sequence, three variations were tested. […]

Substance: AGTATGA (DNA, phosphodiester; further chemistry not fully specified) [SEQ ID NO: 3]
- increase in melanin content [1]: 640%

Substance: CATAC (DNA, phosphodiester; further chemistry not given here) [SEQ ID NO: 6]
- increase in p21 mRNA level (p21/Waf 1/Cip 1 gene): 10–20%
- reduction of cell number [2]: 25%
- pigment content increase, of control levels ([1]; 100 μM, 5 days, three experiments): 61%±60%
- melanin content, of control cells ([1]; 5 days, FIG. 12): 165+/−77%

Substance: CCCTAA (DNA, backbone not given here) [SEQ ID NO: 12]
- melanogenic activity [1]: less active

Substance: GAGTATGAG (DNA, phosphodiester; further chemistry not fully specified) [SEQ ID NO: 1 without 5′ phosphorylation]
- cellular uptake and localization (confocal microscopy, FACS) (S91 cells): only moderate uptake

Substance: GTATG (DNA, phosphodiester; further chemistry not fully specified) [SEQ ID NO: 4]
- increase in melanin content [1]: 670%

Substance: TAGGAGGAT (DNA, phosphodiester; further chemistry not fully specified) [SEQ ID NO: 2]
- increase in melanin content [1]: 800%

Substance: TTAGGG (Synthetic DNA Fragment) [SEQ ID NO: 11]
- melanogenic activity [1]: highly melanogenic

Substance: pCGGGCTTATTG (DNA, 5' {P}, backbone not given here) [SEQ ID NO:15, reference compound]
- apoptosis and S-phase arrest (Jurkat cells; 10 μM): failed to induce apoptosis and only induced a moderate S-phase arrest
- apoptotic cells by FACS analysis (Jurkat cells; 10 μM, 72 hours): 2%
- apoptotic cells by FACS analysis (Jurkat cells; 10 μM, 96 hours): 2–4%

Substance: pGCATGCATGCATTACGTACG (DNA, 5' {P}, backbone not given here) [SEQ ID NO: 8]
- cellular uptake and localization (confocal microscopy, FACS) (S91 cells): pattern of fluorescence very similar to that seen with phosphorylated SEQ ID NO: 1
- pigmentation relative to control cells ([1]; FIG. 16): twice the level of control cells

Substance: pGGGTTAGGGTT [SEQ ID NO:13]
- apoptotic cells by FACS analysis (Jurkat cells; 10 μM, 72 hours): 13%
- apoptotic cells by FACS analysis (Jurkat cells; 10 μM, 96 hours): 28%
- activity of the two complete telomere overhang homologs (Jurkat cells; separate paired cultures): equal in activity

Substance: pTAGATGTGGTG (DNA, 5' {P}, backbone not given here) [SEQ ID NO:14]
- apoptotic cells by FACS analysis (Jurkat cells; 10 μM, 72 hours): 10%
- apoptotic cells by FACS analysis (Jurkat cells; 10 μM, 96 hours): 16%

Substance: pTspT
- melanogenesis ([1]; 100 μM dinucleotides or 40 μM 11mers, 6 days): did not
- constitutive pigmentation ([1]; 100 μM pTspT or 40 μM 11mer-1-S, 6 days or one week): reduced the constitutive pigmentation
- UV-induced doubling of melanin content ([1]; 100 μM, 5 mJ/cm^2 solar-simulated light, one week): blocked
